# How the values were obtained:
# Assay type in all cases: functional
# [1] = Antiproliferative activity against human M14 cells after 48 hrs by sulforhodamine B assay; settings: M14, 48 h
# [2] = test system: MDA-MB-231; assay: Effect on cell cycle regulatory protein in human MDA-MB-231 cells assessed as p21 level at 5 uM after 48 hrs by Western blot analysis relative to control
# [3] = Antiproliferative activity against human BT549 cells after 48 hrs by sulforhodamine B assay; settings: BT-549, 48 h
# [4] = Antiproliferative activity against human SK-MEL-5 cells after 48 hrs by sulforhodamine B assay; settings: SK-MEL-5, 48 h
# [5] = Cell cycle arrest in human MDA-MB-231 cells assessed as accumulation at G2/M phase at 5 uM after 72 hrs by propidium iodide staining based flow cytometric analysis (reference value: 19.7%)
# [6] = Antiproliferative activity against human MDA-MB-468 cells after 48 hrs by sulforhodamine B assay; settings: MDA-MB-468, 48 h
# [7] = Antiproliferative activity against human PC3 cells after 48 hrs by sulforhodamine B assay; settings: PC-3, 48 h
# [8] = Antiproliferative activity against human U251 cells after 48 hrs by sulforhodamine B assay; settings: U-251, 48 h
# [9] = Cell cycle arrest in human MDA-MB-231 cells assessed as accumulation at subG0/G1 phase at 5 uM after 72 hrs by propidium iodide staining based flow cytometric analysis (reference value: 6.3%)
# [10] = Antiproliferative activity against human HCC2998 cells after 48 hrs by sulforhodamine B assay; settings: HCC 2998, 48 h
# [11] = Cell cycle arrest in human MDA-MB-231 cells assessed as accumulation at subG0/G1 phase at 10 uM after 24 hrs by propidium iodide staining based flow cytometric analysis (reference value: 7.6%)
# [12] = Antiproliferative activity against human HOP92 cells after 48 hrs by sulforhodamine B assay; settings: HOP-92, 48 h
# [13] = Antiproliferative activity against human A549/ATCC cells after 48 hrs by sulforhodamine B assay; settings: A549, 48 h
# [14] = Antiproliferative activity against human TK10 cells after 48 hrs by sulforhodamine B assay; settings: TK-10, 48 h
# [15] = Antiproliferative activity against human SF539 cells after 48 hrs by sulforhodamine B assay; settings: SF-539, 48 h
# [16] = Cell cycle arrest in human MDA-MB-231 cells assessed as accumulation at G0/G1 phase at 10 uM after 48 hrs by propidium iodide staining based flow cytometric analysis (reference value: 67%)
# [17] = Cell cycle arrest in human MDA-MB-231 cells assessed as accumulation at G0/G1 phase at 10 uM after 72 hrs by propidium iodide staining based flow cytometric analysis (reference value: 69.3%)
# [18] = Antiproliferative activity against human UACC257 cells after 48 hrs by sulforhodamine B assay; settings: UACC-257, 48 h
# [19] = Antiproliferative activity against human MALME-3M cells after 48 hrs by sulforhodamine B assay
# [20] = Cell cycle arrest in human MDA-MB-231 cells assessed as accumulation at G0/G1 phase at 5 uM after 48 hrs by propidium iodide staining based flow cytometric analysis (reference value: 67%)
# [21] = Cell cycle arrest in human MDA-MB-231 cells assessed as accumulation at G0/G1 phase at 10 uM after 24 hrs by propidium iodide staining based flow cytometric analysis (reference value: 66.5%)
# [22] = Antiproliferative activity against human NCI-H23 cells after 48 hrs by sulforhodamine B assay; settings: NCI-H23, 48 h
# [23] = Antiproliferative activity against human HCT15 cells after 48 hrs by sulforhodamine B assay; settings: HCT-15, 48 h
# [24] = Antiproliferative activity against human T47D cells after 48 hrs by sulforhodamine B assay
# [25] = test system: MDA-MB-231; assay: Effect on cell cycle regulatory protein in human MDA-MB-231 cells assessed as cdc2 level at 5 uM after 48 hrs by Western blot analysis relative to control
# [26] = read-out: LC50 (the source's name)
smiles,measurement,setting,value
C=C1c2c(C)nn(-c3ccc(C#CCO[C@@H]4O[C@H](CO)[C@@H](O)[C@H](O)[C@H]4O)cc3)c2N(C)C23CC1C1(C)c4c(C)nn(-c5ccc(C#CCO[C@@H]6O[C@H](CO)[C@@H](O)[C@H](O)[C@H]6O)cc5)c4N(C)C(C)(CC12)C3 (stereo partly specified),GI50,[1],1.67 µM
same,TGI,[1],3.44 µM
same,CC50,[1]; [26],7.06 µM
same,fold change (FC),[2],0.2
same,GI50,[3],1.3 µM
same,TGI,[3],2.97 µM
same,CC50,[3]; [26],6.77 µM
same,GI50,[4],1.38 µM
same,TGI,[4],2.71 µM
same,CC50,[4]; [26],5.31 µM
same,Activity,[5],18.7%
same,GI50,[6],1.34 µM
same,TGI,[6],2.73 µM
same,CC50,[6]; [26],5.57 µM
same,GI50,[7],0.7 µM
same,TGI,[7],2.56 µM
same,CC50,[7]; [26],7.79 µM
same,GI50,[8],1.19 µM
same,TGI,[8],2.59 µM
same,CC50,[8]; [26],5.61 µM
same,Activity,[9],4%
same,GI50,[10],1.57 µM
same,TGI,[10],3.15 µM
same,CC50,[10]; [26],6.32 µM
same,Activity,[11],2.2%
same,GI50,[12],0.43 µM
same,TGI,[12],2.52 µM
same,CC50,[12]; [26],8.63 µM
same,GI50,[13],1.68 µM
same,TGI,[13],4.09 µM
same,CC50,[13]; [26],9.98 µM
same,GI50,[14],2.01 µM
same,TGI,[14],4.04 µM
same,CC50,[14]; [26],8.09 µM
same,GI50,[15],1.78 µM
same,TGI,[15],3.33 µM
same,CC50,[15]; [26],6.22 µM
same,Activity,[16],61.3%
same,Activity,[17],61.8%
same,GI50,[18],1.82 µM
same,TGI,[18],4.56 µM
same,CC50,[18]; [26],15.4 µM
same,GI50,[19],1.87 µM
same,TGI,[19],3.66 µM
same,CC50,[19]; [26],7.17 µM
same,Activity,[20],64.3%
same,Activity,[21],52%
same,GI50,[22],2.33 µM
same,TGI,[22],6.59 µM
same,CC50,[22]; [26],100 µM
same,GI50,[23],1.57 µM
same,TGI,[23],3.45 µM
same,GI50,[24],0.68 µM
same,TGI,[24],6.8 µM
same,CC50,[24]; [26],100 µM
same,fold change (FC),[25],1.5
